What all share (type): biochemical
One assay concerns the target T1, Urinkallikrein (Homo sapiens, UniProt P06870).
T1 construct: 1 ml Urin und 1 ml TRIS-Imidazol-Puffer mit pH 7,9; from tissue; host or cells: human urine
As to the kind of experiment: Cleavage of chromogenic substrate by urinary kallikrein in human urine. The conditions noted are these: 1 ml human urine (pooled morning urine of healthy persons), per min; Substratkonzentration 2 x 10^-4 molar.

The target of assay [1] is T2, Submandibularis-Kallikrein (Homo sapiens, UniProt P06870).
T2 construct: Man mischt 0,5 ml Sputum mit 2 ml TRIS-Imidazol-Puffer; from tissue; host or cells: human sputum
T2 sequence (P06870 25-262): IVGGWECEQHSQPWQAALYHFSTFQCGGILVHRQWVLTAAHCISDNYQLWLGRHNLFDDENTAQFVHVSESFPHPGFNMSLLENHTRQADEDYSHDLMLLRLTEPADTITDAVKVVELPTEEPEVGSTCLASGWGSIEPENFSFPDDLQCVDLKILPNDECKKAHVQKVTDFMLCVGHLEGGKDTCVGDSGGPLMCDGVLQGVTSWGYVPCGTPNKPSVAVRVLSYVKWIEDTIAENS
As to the kind of experiment: Cleavage of chromogenic substrate by submandibular (glandular) kallikrein in human sputum. The conditions noted are these: 1 ml human sputum, per min; Substratkonzentration 2 x 10^-4 molar. In short, it runs like this:
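Sputum mixed with TRIS-imidazole buffer (ionic strength 1.0), preincubated 5 min at 37°C and centrifuged; supernatant incubated with aqueous substrate solution (2 x 10^-3 M, stock). p-Nitroaniline release followed continuously at 405 nm for 5-10 min; activity expressed as mU per ml sputum from ΔOD/min.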

For a further assay, the target named is T3, Humanthrombin (Homo sapiens, UniProt P00734).
T3 construct: Humanplasmin und hu-manem NIH-Thrombin
As to the kind of experiment: Cleavage of chromogenic substrate by human NIH thrombin. The conditions noted are these: 1 NIH-Einheit human thrombin, per min; Substratkonzentration 2 x 10^-4 molar. A digest of the protocol: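 Thrombin hydrolysis of chromogenic p-nitroanilide substrate read spectrophotometrically at 405 nm; fluorogenic naphthylamine, methylcoumarylamine or di(methoxycarbonyl)phenylamine substrates read continuously by fluorescence emission at 400-470 nm. Activity taken as product formed per unit time; 1 µmol product/min defined as 1 enzyme unit for a given substrate.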

In another assay the target is T4, Humanplasmin (Homo sapiens, UniProt P00747).
T4 construct: da bei der Aktivierung aus 1 Molekül Plasminogen 1 Molekül Plasmin entsteht
T4 sequence (P00747 581-810 limits assumed): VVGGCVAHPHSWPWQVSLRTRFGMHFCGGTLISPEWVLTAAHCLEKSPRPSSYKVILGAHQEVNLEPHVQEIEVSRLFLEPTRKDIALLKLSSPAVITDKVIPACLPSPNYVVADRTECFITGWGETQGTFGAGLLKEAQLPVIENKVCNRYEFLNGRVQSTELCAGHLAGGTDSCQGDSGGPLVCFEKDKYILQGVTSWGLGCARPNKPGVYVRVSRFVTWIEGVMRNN
T4 sequence (P00747 97-580 partner limits assumed): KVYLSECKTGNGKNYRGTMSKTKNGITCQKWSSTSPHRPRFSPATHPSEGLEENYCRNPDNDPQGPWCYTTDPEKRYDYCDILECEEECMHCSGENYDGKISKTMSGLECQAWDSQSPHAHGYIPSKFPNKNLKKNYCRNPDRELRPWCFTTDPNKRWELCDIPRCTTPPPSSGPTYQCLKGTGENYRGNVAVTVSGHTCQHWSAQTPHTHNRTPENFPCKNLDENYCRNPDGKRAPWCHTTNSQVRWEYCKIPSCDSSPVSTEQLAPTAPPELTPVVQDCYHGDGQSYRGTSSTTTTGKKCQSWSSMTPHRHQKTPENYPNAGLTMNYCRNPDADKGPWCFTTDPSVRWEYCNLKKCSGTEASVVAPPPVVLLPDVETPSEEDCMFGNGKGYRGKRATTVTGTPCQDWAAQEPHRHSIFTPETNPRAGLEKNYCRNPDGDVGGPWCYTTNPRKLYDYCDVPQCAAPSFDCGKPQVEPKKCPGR
In words: Cleavage of chromogenic substrate by human plasmin. The settings on record: 1 CU-Einheit human plasmin, per min; Substratkonzentration 2 x 10^-4 molar.

Non-standard residues stand in square brackets, D forms with d. Residues, ends and D or L forms follow the SMILES beside them. *: point of attachment. Cha = N[C@@H](CC1CCCCC1)C(=O)O; dCha = N[C@H](CC1CCCCC1)C(=O)O; dChg = N[C@@H](C(=O)O)C1CCCCC1; dPhg = N[C@@H](C(=O)O)c1ccccc1; pNA = O=[N+]([O-])c1ccc(N*)cc1; Chg = N[C@H](C(=O)O)C1CCCCC1; dNle = CCCC[C@@H](N)C(=O)O; dNva = CCC[C@@H](N)C(=O)O; dAbu = CC[C@@H](N)C(=O)O

T1 sequence (P06870 25-262): as the sequence (P06870 25-262) above

With `CC(C)[C@@H](N)C(=O)N[C@H](C(=O)N[C@@H](CCCCN)C(=O)Nc1ccc([N+](=O)[O-])cc1)C1CCCCC1` [Beispiel 30, 2AcOH.H-D-Val-CHG-Lys-pNA] (H-[dV]-[Chg]-Lys-pNA), the “Menge des durch 1 ml Humanurin pro Min. freigesetzten Spaltproduktes R-NH2 in Nanomol (Urinkallikrein)” value at Urinkallikrein was determined as 0 Nanomol. The “Menge des durch 1 ml Humansputum pro Min. freigesetzten Spaltproduktes R-NH2 in Nanomol (Submandibularis-Kallikrein)” value in assay [1] is 1,3 Nanomol. Further, the “Menge des durch 1 NIH-Einheit Thrombin pro Min. freigesetzten Spaltproduktes R-NH2 in Nanomol (Humanthrombin)” value at Humanthrombin is listed as 0,27 Nanomol. Further, the “Menge des durch 1 CU-Einheit Humanplasmin pro Min. freigesetzten Spaltproduktes R-NH2 in Nanomol (Humanplasmin)” value at Humanplasmin is given as 61 Nanomol.
Taken in the same sequence, the figures for `NCCCC[C@H](NC(=O)[C@@H]1CCCN1C(=O)[C@H](N)C1CCCCC1)C(=O)Nc1ccc([N+](=O)[O-])cc1` [Beispiel 31, 2AcOH.H-D-CHG-Pro-Lys-pNA] (H-[dChg]-Pro-Lys-pNA) were 0 Nanomol, 1,9 Nanomol, 3,78 Nanomol and 231 Nanomol.
Taken in the same sequence, the figures for `NCCCC[C@H](NC(=O)[C@@H]1CCCN1C(=O)[C@H](N)CC1CCC(O)CC1)C(=O)Nc1ccc([N+](=O)[O-])cc1` (stereo partly drawn) [Beispiel 32, 2AcOH.H-D-CHT-Pro-Lys-pNA] were 0,20 Nanomol, 3,8 Nanomol, 0,8 Nanomol and 613 Nanomol.
Taken in the same sequence, the figures for `NCCCC[C@H](NC(=O)[C@H](CC1CCCCC1)NC(=O)[C@H](N)c1ccccc1)C(=O)Nc1ccc([N+](=O)[O-])cc1` [Beispiel 33, 2AcOH.H-D-Ph'Gly-CHA-Lys-pNA] (H-[dPhg]-[Cha]-Lys-pNA) were 0,10 Nanomol, 0,9 Nanomol, 0,4 Nanomol and 837 Nanomol.
Turning to `CC(C)[C@@H](N)C(=O)N[C@@H](CC1CCC(O)CC1)C(=O)N[C@@H](CCCCN)C(=O)Nc1ccc([N+](=O)[O-])cc1` (stereo partly drawn) [Beispiel 34, 2AcOH.H-D-Val-CHT-Lys-pNA], the “Menge des durch 1 ml Humanurin pro Min. freigesetzten Spaltproduktes R-NH2 in Nanomol (Urinkallikrein)” value on Urinkallikrein is 1,40 Nanomol. For the same compound, in assay [1], the “Menge des durch 1 ml Humansputum pro Min. freigesetzten Spaltproduktes R-NH2 in Nanomol (Submandibularis-Kallikrein)” value is given as 16,5 Nanomol. Moreover, the “Menge des durch 1 NIH-Einheit Thrombin pro Min. freigesetzten Spaltproduktes R-NH2 in Nanomol (Humanthrombin)” value at Humanthrombin was 0,4 Nanomol. Also, at Humanplasmin, the “Menge des durch 1 CU-Einheit Humanplasmin pro Min. freigesetzten Spaltproduktes R-NH2 in Nanomol (Humanplasmin)” value is listed as 532 Nanomol.
Regarding `NCCCC[C@H](NC(=O)[C@H](CC1CCC(O)CC1)NC(=O)[C@H](N)c1ccccc1)C(=O)Nc1ccc([N+](=O)[O-])cc1` (stereo partly drawn) [Beispiel 35, 2AcOH.H-D-Ph'Gly-CHT-Lys-pNA], the “Menge des durch 1 ml Humanurin pro Min. freigesetzten Spaltproduktes R-NH2 in Nanomol (Urinkallikrein)” value at Urinkallikrein is recorded as 0,10 Nanomol. For the same compound, in assay [1], the “Menge des durch 1 ml Humansputum pro Min. freigesetzten Spaltproduktes R-NH2 in Nanomol (Submandibularis-Kallikrein)” value is 0,9 Nanomol. On Humanthrombin, the “Menge des durch 1 NIH-Einheit Thrombin pro Min. freigesetzten Spaltproduktes R-NH2 in Nanomol (Humanthrombin)” value was 0,5 Nanomol. Moreover, at Humanplasmin, the “Menge des durch 1 CU-Einheit Humanplasmin pro Min. freigesetzten Spaltproduktes R-NH2 in Nanomol (Humanplasmin)” value was 894 Nanomol.
Regarding `CC(C)C[C@@H](N)C(=O)N[C@@H](CC1CCCCC1)C(=O)N[C@@H](CCCNC(=N)N)C(=O)Nc1ccc([N+](=O)[O-])cc1` [Beispiel 36, 2HBr.H-D-Leu-CHA-Arg-pNA] (H-[dL]-[Cha]-Arg-pNA), at Urinkallikrein, the “Menge des durch 1 ml Humanurin pro Min. freigesetzten Spaltproduktes R-NH2 in Nanomol (Urinkallikrein)” value is 3,11 Nanomol. Also, the “Menge des durch 1 ml Humansputum pro Min. freigesetzten Spaltproduktes R-NH2 in Nanomol (Submandibularis-Kallikrein)” value in assay [1] was 35,9 Nanomol. Moreover, at Humanthrombin, the “Menge des durch 1 NIH-Einheit Thrombin pro Min. freigesetzten Spaltproduktes R-NH2 in Nanomol (Humanthrombin)” value was 6,8 Nanomol. For the same compound, at Humanplasmin, the “Menge des durch 1 CU-Einheit Humanplasmin pro Min. freigesetzten Spaltproduktes R-NH2 in Nanomol (Humanplasmin)” value is reported as 1069 Nanomol.
Taken in the same sequence, the figures for `CCCC[C@@H](N)C(=O)N[C@@H](CC1CCCCC1)C(=O)N[C@@H](CCCNC(=N)N)C(=O)Nc1ccc([N+](=O)[O-])cc1` [Beispiel 37, 2HBr.H-D-Nleu-CHA-Arg-pNA] (H-[dNle]-[Cha]-Arg-pNA) were 2,08 Nanomol, 28,1 Nanomol, 7,3 Nanomol and 1179 Nanomol.
Taken in the same sequence, the figures for `CCC[C@@H](N)C(=O)N[C@@H](CC1CCCCC1)C(=O)N[C@@H](CCCNC(=N)N)C(=O)Nc1ccc([N+](=O)[O-])cc1` [Beispiel 38, 2HBr.H-D-Nval-CHA-Arg-pNA] (H-[dNva]-[Cha]-Arg-pNA) were 3,12 Nanomol, 41,3 Nanomol, 5,1 Nanomol and 969 Nanomol.
Taken in the same sequence, the figures for `N=C(N)NCCC[C@H](NC(=O)[C@H](CC1CCCCC1)NC(=O)[C@H](N)Cc1ccccc1)C(=O)Nc1ccc([N+](=O)[O-])cc1` [Beispiel 39, 2HBr.H-D-Phe-CHA-Arg-pNA] (H-[dF]-[Cha]-Arg-pNA) were 2,14 Nanomol, 28,5 Nanomol, 3,9 Nanomol and 814 Nanomol.
For the compound `C[C@@H](N)C(=O)N[C@@H](CC1CCCCC1)C(=O)N[C@@H](CCCNC(=N)N)C(=O)Nc1ccc([N+](=O)[O-])cc1` [Beispiel 40, 2HBr.H-D-Ala-CHA-Arg-pNA] (H-[dA]-[Cha]-Arg-pNA), the “Menge des durch 1 ml Humanurin pro Min. freigesetzten Spaltproduktes R-NH2 in Nanomol (Urinkallikrein)” value at Urinkallikrein is 1,73 Nanomol. Also, in assay [1], the “Menge des durch 1 ml Humansputum pro Min. freigesetzten Spaltproduktes R-NH2 in Nanomol (Submandibularis-Kallikrein)” value is on record as 22,4 Nanomol. Also, the “Menge des durch 1 NIH-Einheit Thrombin pro Min. freigesetzten Spaltproduktes R-NH2 in Nanomol (Humanthrombin)” value at Humanthrombin is on record as 1,5 Nanomol. Moreover, the “Menge des durch 1 CU-Einheit Humanplasmin pro Min. freigesetzten Spaltproduktes R-NH2 in Nanomol (Humanplasmin)” value on Humanplasmin was found to be 433 Nanomol.
For `CC[C@@H](N)C(=O)N[C@@H](CC1CCCCC1)C(=O)N[C@@H](CCCNC(=N)N)C(=O)Nc1ccc([N+](=O)[O-])cc1` [Beispiel 41, 2HBr.H-D-But-CHA-Arg-pNA] (H-[dAbu]-[Cha]-Arg-pNA), in that order: 2,99 Nanomol, 31,2 Nanomol, 2,8 Nanomol and 623 Nanomol.
Turning to `N=C(N)NCCC[C@H](NC(=O)[C@H](Cc1ccc(O)cc1)NC(=O)[C@H](N)C1CCCCC1)C(=O)Nc1ccc([N+](=O)[O-])cc1` [Beispiel 42, 2HBr.H-D-CHG-Tyr-Arg-pNA] (H-[dChg]-Tyr-Arg-pNA), the “Menge des durch 1 ml Humanurin pro Min. freigesetzten Spaltproduktes R-NH2 in Nanomol (Urinkallikrein)” value on Urinkallikrein is 0,49 Nanomol. Moreover, the “Menge des durch 1 ml Humansputum pro Min. freigesetzten Spaltproduktes R-NH2 in Nanomol (Submandibularis-Kallikrein)” value in assay [1] is 3,9 Nanomol. Besides, the “Menge des durch 1 NIH-Einheit Thrombin pro Min. freigesetzten Spaltproduktes R-NH2 in Nanomol (Humanthrombin)” value at Humanthrombin was 2,0 Nanomol. Besides, the “Menge des durch 1 CU-Einheit Humanplasmin pro Min. freigesetzten Spaltproduktes R-NH2 in Nanomol (Humanplasmin)” value at Humanplasmin came to 969 Nanomol.
For `N=C(N)NCCC[C@H](NC(=O)[C@H](Cc1ccc(O)cc1)NC(=O)[C@H](N)CC1CCCCC1)C(=O)Nc1ccc([N+](=O)[O-])cc1` [Beispiel 43, 2HBr.H-D-CHA-Tyr-Arg-pNA] (H-[dCha]-Tyr-Arg-pNA), in that order: 0,49 Nanomol, 5,2 Nanomol, 8,3 Nanomol and 1407 Nanomol.
For `CCC[C@@H](N)C(=O)N[C@@H](Cc1ccc(O)cc1)C(=O)N[C@@H](CCCNC(=N)N)C(=O)Nc1ccc([N+](=O)[O-])cc1` [Beispiel 44, 2HBr.H-D-Nval-Tyr-Arg-pNA] (H-[dNva]-Tyr-Arg-pNA), in that order: 0,42 Nanomol, 4,9 Nanomol, 1,8 Nanomol and 1219 Nanomol.

The values are drawn from EP0019589A1, “Tripeptide derivatives and their use in a process for determining enzymes” (Pentapharm A.G., priority 1979, dated 1980).
